Reference: patent US20210332161A1, “CHLORINATED DERIVATIVE OF HYALURONIC ACID, METHOD OF PREPARATION THEREOF, A COMPOSITION CONTAINING THE DERIVATIVE, AND USE THEREOF” (CONTIPRO A.S., priority 2018, published 2021)
“And” between values parts separate entries of the source, which are not always exact repeats. Equal values may be shown once.

Experiments:
CVB3 (Nancy) = assay: Testing of antiviral activity based on the plaque reduction; assay type: cell-based; conditions: for PFU on PD, Average: average of 5 repeats; for PFU on PD, Average / PFU on PD: VERO cells; for PFU on PD: single Petri dishes (5 repeats), 5 hours incubation, listed as HA chloramide
Experimental: (§1) Number of repeats −5, tested substance prepared according to Example 19, virus subject to testing: CVB3 (Nancy) in the concentration of 3×10E7, 5 PFU/ml, VERO cellular substrate
(§2) After having been subject to 10^7-fold dilution in the volume of 1.5 ml, the virus was adsorbed on the cell substrate in Petri dishes for 30 minutes. The negative control contained PBS without viruses. Afterwards, the virus was removed by suction and the cells were interlayered by the tested substance (or by HA and PBS contained in the negative control materials), incubation at 37° C. and in the presence of 5% of CO2, for 5 hours. The cells were washed with PBS and covered by a layer of a medium containing EMEM supplemented with 5% of inactivated FBS and 0.75% of agarose. The incubation in an environment containing 5% of CO2 at 37° C. for 4 days. Subsequently, the medium was removed, the cells were stained by a crystal violet dye and the counts of plaques were determined. During the test, the antiviral activity was proportional to the reduction of the number of plaques.

[1] = Stability of hyaluronan chloramide on standing (DS by NMR); assay type: physicochemical; conditions: initial DS 85%
Experimental: 5 g of hyaluronan (Mw 2200 kg·mol^−1) were dissolved in 250 ml of distilled water. Subsequently, 2 ml of acetic acid were added and the solution was stirred at the temperature of 20° C. for 15 minutes. Then, a sodium salt of dichloroisocyanuric acid in the amount of 3.2 g (1 eq.) was added. Then, the mixture was stirred at a temperature of 20° C. for 48 hours. Subsequently, the mixture was precipitated by 2.5 litres of isopropanol and filtered. The solid portion was washed with 2 litres of isopropanol, whereupon it was vacuum dried for 20 hours. DS 85% (determined from NMR). The NMR solution (7 mg of the product in 0.7 ml of D2O) was measured after another 5 days of standing at 20° C. The DS value was determined as 84%. The solid portion in the form of powder was let stand at 20° C. for 100 days and after that the sample was dissolved in D2O. The DS value was determined as 84%.

VERO cellular substrate = assay: Plaque test groups without virus (examination of the cells / of toxicity); assay type: cell-based, Cercopithecus aethiops; conditions: 1% in PBS, no virus
Experimental: as §1, §2

[2] = single Petri dishes (5 repeats)

| Substance | PFU on PD, Average (CVB3 (Nancy); 1% in PBS) | DS value of the NMR solution after standing ([1]; 7 mg of product in 0.7 ml D2O, another 5 days of standing at 20° C.) | DS value of the solid powder after standing ([1]; powder let stand at 20° C. for 100 days, then dissolved in D2O) | PFU on PD, Average (CVB3 (Nancy); 0.1% in PBS) | PFU on PD (CVB3 (Nancy); 0.1% in PBS) | PFU on PD, Average (CVB3 (Nancy); 0.5% in PBS) | PFU on PD (CVB3 (Nancy); 0.5% in PBS) | inhibition of the viral growth compared to the standard with HA (CVB3 (Nancy); Tests 1, 2 and 3 (0.1, 0.5, 1% in PBS), more efficient with increasing concentration) | PFU on PD, Average, Examination of the cells with HA (VERO cellular substrate; average of 5 repeats) | PFU on PD, Average, Examination of toxicity (VERO cellular substrate; average of 5 repeats) | PFU on PD, Examination of the cells with HA (VERO cellular substrate; [2]) | PFU on PD, Examination of toxicity (VERO cellular substrate; [2]) |
| --- | --- | --- | --- | --- | --- | --- | --- | --- | --- | --- | --- | --- |
| Hyaluronic acid [HA, reference compound] | 10.4 PFU |  |  |  |  |  |  |  |  |  |  |  |
| Hyaluronan Chloramide [Example 16] |  | 84% | 84% |  |  |  |  |  |  |  |  |  |
| Hyaluronan Chloramide [Example 19] | 2.6 PFU |  |  | 7.8 PFU | 5 PFU and 7 PFU and 10 PFU and 8 PFU and 9 PFU | 7.2 PFU | 8 PFU and 5 PFU and 7 PFU | inhibition of the viral growth | 0 PFU | 0 PFU | 0 PFU | 0 PFU |
